Data from publication PMC13013135, “[^99mTc]Tc-PSMA-HSG for PSMA-targeted Hybrid Surgical Guidance: a new addition to the PSMA-I&S/I&T family” (European Journal of Nuclear Medicine and Molecular Imaging, 2025).
Values joined by “and” are separate entries in the source; they are usually repeats but may differ in a detail not shown here. Equal values may be shown once. Read-outs that look alike come from different tables or passages of the source.

Legend:
PSMA = PSMA (Homo sapiens, UniProt Q04609); assay type: in vivo; parameters: Five patients with a diagnosis of initial (n = 4) or biochemical recurrence of (n = 1) histologically proven prostate cancer; from tissue; host or cells: prostate cancer patients: primary tumour, lymph nodes, resected tissue sections
From the text: For all patients, radioguided surgery had been recommended by the local multidisciplinary tumor board. […] Attenuation maps were generated on the basis of low-dose CT. For a detailed protocol of imaging parameters and the dosimetry protocol please refer to the Supplementary Material. […] A scatter window ranging from 114 to 126 keV was additionally acquired for planar and SPECT imaging. For SPECT, the imaging field of view was from neck to upper thighs. At each bed position, 60 views were acquired, with a duration of 8 s each. Subsequently, images were reconstructed using an ordered subset expectation maximisation (OSEM) algorithm (2 iterations and 10 subsets) with a Butterworth filter (fc = 0.48, n = 10). Scatter and attenuation correction was applied. For whole-body planar imaging, a scan speed of 30 cm/min was employed until 60 min post-injection, after which the acquisition speed was moderated to 12 cm/min for any further data collection.

mouse serum = test: Plasma protein binding (B50), ultrafiltration, mouse serum; assay type: in vitro ADME
Procedure: A detailed experimental procedure is provided in the Supplementary Material. […] Briefly, protein solutions (maximum concentration: […] Samples were briefly vortexed and incubated for 30 min at 37 °C. […] The filter units were then removed from the centrifugal tubes and washed twice with 300 µL PBS to recover the protein fraction. The activity in the filtrate, filter and protein fraction were then quantified using a γ-counter. […] The percentages of radioligand bound to the respective proteins are represented as means ± standard deviation (SD) of three independent experiments.

[1] = exploratory cohort, five patients
[2] = subjects with newly diagnosed PCa

Sequence of PSMA (Q04609 whole entry): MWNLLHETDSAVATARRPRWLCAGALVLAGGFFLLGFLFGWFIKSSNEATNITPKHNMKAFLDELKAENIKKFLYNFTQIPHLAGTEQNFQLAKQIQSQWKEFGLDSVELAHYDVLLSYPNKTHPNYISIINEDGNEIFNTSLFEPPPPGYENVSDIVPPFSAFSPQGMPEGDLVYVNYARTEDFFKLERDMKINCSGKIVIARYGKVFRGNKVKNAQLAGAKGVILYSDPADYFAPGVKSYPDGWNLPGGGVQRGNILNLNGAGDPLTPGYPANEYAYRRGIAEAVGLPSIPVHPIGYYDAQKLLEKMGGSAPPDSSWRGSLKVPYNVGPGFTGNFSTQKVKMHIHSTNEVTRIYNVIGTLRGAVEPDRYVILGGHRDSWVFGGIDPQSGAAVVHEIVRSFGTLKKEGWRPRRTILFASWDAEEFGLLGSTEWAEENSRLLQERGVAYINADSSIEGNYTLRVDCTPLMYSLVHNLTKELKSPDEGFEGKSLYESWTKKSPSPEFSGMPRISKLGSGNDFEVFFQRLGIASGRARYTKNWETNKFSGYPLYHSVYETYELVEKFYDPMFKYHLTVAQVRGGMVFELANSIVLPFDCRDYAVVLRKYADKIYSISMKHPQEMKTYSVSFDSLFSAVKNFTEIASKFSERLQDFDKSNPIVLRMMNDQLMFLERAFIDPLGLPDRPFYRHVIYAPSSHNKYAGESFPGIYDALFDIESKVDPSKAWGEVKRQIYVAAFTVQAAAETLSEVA

C[N+]1=C(/C=C/C=C/C=C2/N(CCCCCC(=O)NCCCC[C@@H](NC(=O)[C@@H](CO)NC(=O)[C@@H](CO)NC(=O)[C@@H](CO)NC(=O)CS)C(=O)N[C@H](Cc3ccc(O)cc3)C(=O)N[C@H](Cc3ccc4ccccc4c3)C(=O)N[C@H](CCCCNC(=O)CCCCCCC(=O)NCCCC[C@H](NC(=O)N[C@@H](CCC(=O)O)C(=O)O)C(=O)O)C(=O)O)c3ccc(S(=O)(=O)[O-])cc3C2(C)C)C(C)(C)c2cc(S(=O)(=O)O)ccc21 [[^99mTc]Tc-PSMA-HSG, metal not drawn]
scintigraphy findings (PSMA; Patient #1, 53 µg): Two positive LN in the right and left external iliac region | scintigraphy findings (PSMA; Patient #2, 53 µg): Moderate tracer uptake of the primary No positive LN | scintigraphy findings (PSMA; Patient #3, 53 µg): Moderate tracer uptake of the primary No positive LN | scintigraphy findings (PSMA; Patient #4, 350 µg): No discernible tracer uptake of the primary No discernible tracer uptake in the right iliac LN | scintigraphy findings (PSMA; Patient #5, 250 µg): Moderate tracer uptake of the primary No positive LN | negative predictive value (NPV) of SPECT/CT (PSMA; [1]): 94% | positive predictive value (PPV) of SPECT/CT (PSMA; [1]): 100% | sensitivity of SPECT/CT (PSMA; [1]): 33% | specificity of SPECT/CT (PSMA; [1]): 100% | clearance in patients, visual image analysis (PSMA; human, in vivo): swift activity clearance from blood/background via rapid renal excretion | intestinal accumulation in patients (PSMA; human, in vivo): Virtually no intestinal accumulation | PET-suspicious lymph nodes positive in scintigraphy (PSMA; [2]): 2/10 | primary tumor delineated / visualized (PSMA; [2]): 3 out of 4 and 3/4 | B50 MS (mouse serum): 142 ± 22
